Read-outs that look alike come from different tables or passages of the source.

The subject of the assay is CAL51 cell proliferation. Briefly: Cell Titer Glo Proliferation Assay (CAL51). The format is cell-based, human. Particulars: CAL51 cell proliferation, 72 h, Cell Titer Glo luminescence, read-out: Act. Level. As for the experimental part:
Cell Titer Glo Proliferation Assay. Triple negative breast cancer cell line CAL51 was purchased from DSMZ. […] Allcell lines were maintained in growth media consisting of 90% high glucose Dulbecco's Modified Eagle Medium or RPMI1640 (Invitrogen), 10% fetal bovine serum (Hyclone), and 2 mM L-glutamine (Invitrogen). […] After overnight culture, compound stock (30 mM) was diluted serially in DMSO, further diluted in growth media, and was added to each well as a 10× concentrated solution in a volume of 11 μL, mixed, and allowed to incubate with cells. The compound vehicle (DMSO) was maintained at a final concentration of 0.2% in all wells. After 72 h, 100 μL of Cell Titer Glo solution (Promega) was added to each well of the 96-well plate. The plate was placed on a shaker for 2 minutes. After 10 minutes incubation, the luminescence signal was detected with Envision microplate reader (Perkin Elmer).
(ATP-based viability assays read luminescence as a measure of living cells.)

Take `COc1cc(C(=O)N2CCC(O)CC2)ccc1Nc1nc(OC2CCCC2)c2c(-c3ccc4nc(C)oc4c3)c[nH]c2n1` [Example 231, (4-(4-(cyclopentyloxy)-5-(2-methylbenzo[d]oxazol-6-yl)-7H-pyrrolo[2,3-d]pyrimidin-2-ylamino)-3-methoxyphenyl)(4-hydroxy-piperidin-1-yl)methanone]: the IC50 (Homo sapiens, CAL-51) was under 100 nM.
The same measure, in the same setting: as for `CNc1nc(Nc2ccc(C(=O)N(C)C)cc2Cl)nc2[nH]cc(-c3ccc(-c4nnc[nH]4)cc3)c12` [Example 72, 4-(5-(4-(4H-1,2,4-triazol-3-yl)phenyl)-4-(methylamino)-7H-pyrrolo[2,3-d]pyrimidin-2-ylamino)-3-chloro-N,N-dimethylbenzamide], the figure is 400 to 1000 nM.
Consider `COc1cc(C(=O)N(C)C)ccc1Nc1nc(O[C@@H]2CCOC2)c2c(-c3ccc4nc(C)oc4c3)c[nH]c2n1` [Example 222, (R)-3-methoxy-N,N-dimethyl-4-(5-(2-methylbenzo[d]oxazol-6-yl)-4-(tetrahydrofuran-3-yloxy)-7H-pyrrolo[2,3-d]pyrimidin-2-ylamino)benzamide], for which the IC50 (Homo sapiens, CAL-51) was under 100 nM.
The same measure, in the same setting: next, `CNC(=O)c1ccc(Nc2nc(OC3COC3)c3c(-c4ccc5nc(C)oc5c4)c[nH]c3n2)c(OC)c1` [Example 179, 3-methoxy-N-methyl-4-(5-(2-methylbenzo[d]oxazol-6-yl)-4-(oxetan-3-yloxy)-7H-pyrrolo[2,3-d]pyrimidin-2-ylamino)benzamide]: under 100 nM.
Still for that read-out and setting: as for `CNC(=O)c1ccc(Nc2nc(O[C@H]3CC[C@@H](O)CC3)c3c(-c4ccc(O)cc4)c[nH]c3n2)c(OC)c1` [Example 46, 4-(4-((1s,4s)-4-hydroxycyclo-hexyloxy)-5-(4-hydroxyphenyl)-7H-pyrrolo[2,3-d]pyrimidin-2-ylamino)-3-methoxy-N-methylbenzamide], the figure is under 100 nM.
The same measure, in the same setting: as for `CNCCNC(=O)c1ccc(Nc2nc(OC3CCOCC3)c3c(-c4ccc5nc(C)oc5c4)c[nH]c3n2)c(OC)c1` [Example 130, 3-methoxy-N-(2-(methylamino)ethyl)-4-(5-(2-methylbenzo[d]oxazol-6-yl)-4-(tetrahydro-2H-pyran-4-yloxy)-7H-pyrrolo [2,3-d]pyrimidin-2-ylamino)benzamide], the figure is 100 to 400 nM.
On to `COc1cc(C(=O)N[C@@H]2CCC[C@@H]2O)ccc1Nc1nc(OC2CCCC2)c2c(-c3ccc4nc(C)oc4c3)c[nH]c2n1` [Example 253, 4-(4-(cyclopentyloxy)-5-(2-methylbenzo[d]oxazol-6-yl)-7H-pyrrolo[2,3-d]pyrimidin-2-ylamino)-N-((1R,2S)-2-hydroxycyclopentyl)-3-methoxybenzamide], for which the IC50 (Homo sapiens, CAL-51) is 100 to 400 nM.
As to `CNC(=O)c1ccc(Nc2nc(NC3CCOCC3)c3c(-c4ccc(O)cc4)c[nH]c3n2)c(OC)c1` [Example 40, 4-(5-(4-hydroxyphenyl)-4-(tetrahydro-2H-pyran-4-ylamino)-7H-pyrrolo[2,3-d]pyrimidin-2-ylamino)-3-methoxy-N-methylbenzamide], the IC50 (Homo sapiens, CAL-51) is under 100 nM.
On the same count and under the same terms, as for `CNC(=O)c1ccc(Nc2nc(OC(C)C)c3c(-c4ccc(-c5ncc[nH]5)cc4)c[nH]c3n2)c(OC)c1` [Example 193, 4-(5-(4-(1H-imidazol-2-yl)phenyl)-4-isopropoxy-7H-pyrrolo [2,3-d]pyrimidin-2-ylamino)-3-methoxy-N-methylbenzamide], the figure is under 100 nM; as for `COCCN(C)C(=O)c1ccc(Nc2nc(OC3CCCC3)c3c(-c4ccc5nc(C)oc5c4)c[nH]c3n2)c(OC)c1` [Example 284, 4-(4-(cyclopentyloxy)-5-(2-methylbenzo[d]oxazol-6-yl)-7H-pyrrolo[2,3-d]pyrimidin-2-ylamino)-3-methoxy-N-(2-methoxyethyl)-N-methylbenzamide], under 100 nM.
Turning to `CNC(=O)c1ccc(Nc2nc(OC3CC3)c3c(-c4ccn(C)n4)c[nH]c3n2)c(OC)c1` [Example 218, 4-(4-cyclopropoxy-5-(1-methyl-1H-pyrazol-3-yl)-7H-pyrrolo[2,3-d]pyrimidin-2-ylamino)-3-methoxy-N-methylbenzamide], the IC50 fell in the range of 1000 to 10000 nM.
For the compound `Cc1cc(C(=O)N(C)C)ccc1Nc1nc(OC2CCOCC2)c2c(-c3cnn(C)c3)c[nH]c2n1` [Example 112, N,N,3-trimethyl-4-(5-(1-methyl-1H-pyrazol-4-yl)-4-(tetrahydro-2H-pyran-4-yloxy)-7H-pyrrolo[2,3-d]pyrimidin-2-ylamino)benzamide], the IC50 (Homo sapiens, CAL-51) is under 100 nM.
Still for that read-out and setting: as for `COc1cc(C(=O)N(CCO)C2CC2)ccc1Nc1nc(OC2CCCC2)c2c(-c3ccc4nc(C)oc4c3)c[nH]c2n1` [Example 251, 4-(4-(cyclopentyloxy)-5-(2-methylbenzo[d]oxazol-6-yl)-7H-pyrrolo[2,3-d]pyrimidin-2-ylamino)-N-cyclopropyl-N-(2-hydroxyethyl)-3-methoxybenzamide], the figure is 100 to 400 nM; as for `CNC(=O)c1ccc(Nc2nc(OC3CCOCC3)c3c(-c4ccc5nc(C)n(C)c5c4)c[nH]c3n2)c(OC)c1` [Example 148, 4-(5-(1,2-dimethyl-1H-benzo[d]imidazol-6-yl)-4-(tetrahydro-2H-pyran-4-yloxy)-7H-pyrrolo[2,3-d]pyrimidin-2-ylamino)-3-methoxy-N-methylbenzamide], under 100 nM; as for `COc1cc(C(=O)NN2CCCCC2)ccc1Nc1nc(OC2CCCC2)c2c(-c3ccc4nc(C)oc4c3)c[nH]c2n1` [Example 292, 4-(4-(cyclopentyloxy)-5-(2-methylbenzo[d]oxazol-6-yl)-7H-pyrrolo[2,3-d]pyrimidin-2-ylamino)-3-methoxy-N-(piperidin-1-yl)benzamide], 100 to 400 nM.
Same read-out and setting: as for `COc1cc(C(=O)N[C@H]2CCOC2)ccc1Nc1nc(OC2CCCC2)c2c(-c3ccc4nc(C)oc4c3)c[nH]c2n1` [Example 267, (S)-4-(4-(cyclopentyloxy)-5-(2-methylbenzo[d]oxazol-6-yl)-7H-pyrrolo[2,3-d]pyrimidin-2-ylamino)-3-methoxy-N-(tetrahydrofuran-3-yl)benzamide], the figure is 100 to 400 nM; as for `Cc1nc2ccc(-c3c[nH]c4nc(Nc5ccc(C(=O)N(C)C)cc5C)nc(O[C@H]5CCCOC5)c34)cc2o1` [Example 104, (S)-N,N,3-trimethyl-4-(5-(2-methylbenzo[d]oxazol-6-yl)-4-(tetrahydro-2H-pyran-3-yloxy)-7H-pyrrolo[2,3-d]pyrimidin-2-ylamino)benzamide], under 100 nM; as for `COc1cc(C(=N)N)ccc1Nc1nc(OC2CCCC2)c2c(-c3ccc4nc(C)oc4c3)c[nH]c2n1` [Example 287, 4-(4-(cyclopentyloxy)-5-(2-methylbenzo[d]oxazol-6-yl)-7H-pyrrolo[2,3-d]pyrimidin-2-ylamino)-3-methoxybenzimidamide], 1000 to 10000 nM.
The same measure, in the same setting: as for `Cc1cc(C(=O)N(C)C)ccc1Nc1nc(OC2CCOCC2)c2c(-c3cncnc3)c[nH]c2n1` [Example 107, N,N,3-trimethyl-4-(5-(pyrimidin-5-yl)-4-(tetrahydro-2H-pyran-4-yloxy)-7H-pyrrolo[2,3-d]pyrimidin-2-ylamino)benzamide], the figure is 100 to 400 nM.
With `CNC(=O)c1ccc(Nc2nc(OC3CCOCC3)c3c(-c4ccc5nc(C(C)C)oc5c4)c[nH]c3n2)c(OC)c1` [Example 170, 4-(5-(2-isopropylbenzo[d]oxazol-6-yl)-4-(tetrahydro-2H-pyran-4-yloxy)-7H-pyrrolo[2,3-d]pyrimidin-2-ylamino)-3-methoxy-N-methylbenzamide], for the setting “Homo sapiens, CAL-51”, the IC50 lay in the range of 100 to 400 nM.
Consider `CNC(=O)c1ccc(Nc2nc(OC3CCCC3)c3c(-c4ccc(NC(C)=O)cc4)c[nH]c3n2)c(OC)c1` [Example 62, 4-(5-(4-acetamidophenyl)-4-(cyclopentyloxy)-7H-pyrrolo[2,3-d]pyrimidin-2-ylamino)-3-methoxy-N-methylbenzamide], for which, where the note is “Homo sapiens, CAL-51”, the IC50 was under 100 nM.
On the same count and under the same terms, as for `CNC(=O)c1ccc(-c2c[nH]c3nc(Nc4ccc(C(=O)NC)cc4C)nc(O[C@H]4CCOC4)c23)cc1` [Example 153, (S)-N,3-dimethyl-4-(5-(4-(methylcarbamoyl)phenyl)-4-(tetrahydrofuran-3-yloxy)-7H-pyrrolo[2,3-d]pyrimidin-2-ylamino)benzamide], the figure is under 100 nM; as for `CNC(=O)c1ccc(Nc2nc(OC3CCOCC3)c3c(-c4ccc(O)cc4)c[nH]c3n2)c(Cl)c1` [Example 29, 3-chloro-4-(5-(4-hydroxyphenyl)-4-(tetrahydro-2H-pyran-4-yloxy)-7H-pyrrolo[2,3-d]pyrimidin-2-ylamino)-N-methylbenzamide], under 100 nM.
As to `CNC(=O)c1ccc(Nc2nc(OC3CCOCC3)c3c(-c4ccnc(OC)c4)c[nH]c3n2)c(OC)c1` [Example 143, 3-methoxy-4-(5-(2-methoxypyridin-4-yl)-4-(tetrahydro-2H-pyran-4-yloxy)-7H-pyrrolo[2,3-d]pyrimidin-2-ylamino)-N-methylbenzamide], the IC50 (Homo sapiens, CAL-51) is under 100 nM.
The same measure, in the same setting: next, `CNC(=O)c1ccc(Nc2nc(OC(C)C)c3c(-c4ccnc(N)c4)c[nH]c3n2)c(OC)c1` [Example 194, 4-(5-(2-aminopyridin-4-yl)-4-isopropoxy-7H-pyrrolo[2,3-d]pyrimidin-2-ylamino)-3-methoxy-N-methylbenzamide]: under 100 nM.
Same read-out and setting: as for `COc1cc(C(=O)N[C@@H]2CCC[C@H]2O)ccc1Nc1nc(OC2CCCC2)c2c(-c3ccc4nc(C)oc4c3)c[nH]c2n1` [Example 266, 4-(4-(cyclopentyloxy)-5-(2-methylbenzo[d]oxazol-6-yl)-7H-pyrrolo[2,3-d]pyrimidin-2-ylamino)-N-((1R,2R)-2-hydroxycyclopentyl)-3-methoxybenzamide], the figure is 100 to 400 nM.

For the origin of these results see patent US9346812B2, “Substituted pyrrolopyrimidine compounds, compositions thereof, and methods of treatment therewith” (Signal Pharmaceutical LLC, priority 2013, dated 2016).
